# Laboratory results reported in patent US11780826B2 (Amgen Inc., priority 2017, dated 2023).
# System: Bovine cardiac myofibrils
# Test: In vitro model of dose-dependent myofibril ATPase modulation (AC1.4, pyruvate kinase/lactate dehydrogenase-coupled ATPase assay at pCa25)
# Type: biochemical
# Settings: concentration at which ATPase activity was 1.4-fold higher than the bottom of the dose curve, mean of a minimum of two independent tests
# How it was run: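 Compound dilutions were premixed with myofibrils, coupling enzymes, EGTA and CaCl2, then the reaction was started with an equal volume carrying ATP (final 1 mM), NADH and PEP. ATP turnover was followed at 340 nm, and dose responses were fit to a four-parameter equation.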
row,AC1.4,Structure (SMILES)
1,0.2465 µM,"Cc1c(CNC(=O)[C@H]2CCCN2C(=O)[C@H]2CCCN(S(=O)(=O)N3CC(C#N)C3)C2)cccc1C(F)(F)F [Example 145, 1-(((3S)-1-((3-cyano-1-azetidinyl)sulfonyl)-3-piperidinyl)carbonyl)-N-(2-methyl-3-(trifluoromethyl)benzyl)-D-prolinamide]"
2,0.2589 µM,"N#CC1CN(S(=O)(=O)N2CCO[C@H](C(=O)N3CCC[C@@H]3C(=O)NCc3ccc(C(F)(F)F)cc3)C2)C1 [Example 149, 1-(((2S)-4-((3-cyano-1-azetidinyl)sulfonyl)-2-morpholinyl)carbonyl)-N-(4-(trifluoromethyl)benzyl)-D-prolinamide]"
3,0.2589 µM,"C[C@@H](NC(=O)[C@H]1CCCN1C(=O)[C@H]1CCCN(S(=O)(=O)N2CC(S(C)(=O)=O)C2)C1)c1ccc(Cl)cc1 [Example 150, N-((1R)-1-(4-chlorophenyl)ethyl)-1-(((3S)-1-((3-(methylsulfonyl)-1-azetidinyl)sulfonyl)-3-piperidinyl)carbonyl)-D-prolinamide]"
4,0.2616 µM,"O=C(NCc1ccc(C(F)(F)F)cc1F)[C@H]1CCCN1C(=O)[C@H]1CCCN(S(=O)(=O)N2CC(n3ccnn3)C2)C1 [Example 151, N-(2-fluoro-4-(trifluoromethyl)benzyl)-1-(((3S)-1-((3-(1H-l,2,3-triazol-1-yl)-1-azetidinyl)sulfonyl)-3-piperidinyl)carbonyl)-D-prolinamide]"
5,0.2624 µM,"Cc1c(Cl)cccc1CNC(=O)[C@H]1CCCN1C(=O)[C@H]1CCCN(S(=O)(=O)N2CC(C#N)C2)C1 [Example 152, N-(3-chloro-2-methylbenzyl)-1-(((3S)-1-((3-cyano-1-azetidinyl)sulfonyl)-3-piperidinyl)carbonyl)-D-prolinamide]"
6,0.2697 µM,"N#CC1CN(S(=O)(=O)N2CCC[C@H](C(=O)N3CCC[C@@H]3C(=O)NCc3cc(F)c(F)c(F)c3)C2)C1 [Example 153, 1-(((3S)-1-((3-cyano-1-azetidinyl)sulfonyl)-3-piperidinyl)carbonyl)-N-(3,4,5-trifluorobenzyl)-D-prolinamide]"
7,0.272 µM,"Cc1ccc(C(C)NC(=O)[C@H]2CCCN2C(=O)[C@H]2CCCN(S(=O)(=O)N3CC(C#N)C3)C2)cc1F (stereo partly drawn) [Example 155, 1-(((3S)-1-((3-cyano-1-azetidinyl)sulfonyl)-3-piperidinyl)carbonyl)-N-(-1-(3-fluoro-4-methylphenyl)ethyl)-D-prolinamide]"
8,0.2727 µM,"CC1(C#N)CN(S(=O)(=O)N2CCC[C@H](C(=O)N3CCC[C@@H]3C(=O)NCc3ccc(C(F)(F)F)cc3)C2)C1 [Example 156, 1-(((3S)-1-((3-cyano-3-methyl-1-azetidinyl)sulfonyl)-3-piperidinyl)carbonyl)-N-(4-(trifluoromethyl)benzyl)-D-prolinamide]"
9,0.2785 µM,"N#CC1CN(S(=O)(=O)N2CCC[C@H](C(=O)N3CCC[C@@H]3C(=O)NCc3ccc(Cl)cc3)C2)C1 [Example 164, N-(4-chlorobenzyl)-1-(((3S)-1-((3-cyano-1-azetidinyl)sulfonyl)-3-piperidinyl)carbonyl)-D-prolinamide]"
10,0.2807 µM,"O=C(NCc1ccc(C(F)(F)F)cc1)[C@H]1CCCN1C(=O)[C@H]1CCCN(S(=O)(=O)N2CCC2c2cccc(F)c2)C1 (stereo partly drawn) [Example 166, 1-(((3S)-1-((-2-(3-fluorophenyl)-1-azetidinyl)sulfonyl)-3-piperidinyl)carbonyl)-N-(4-(trifluoromethyl)benzyl)-D-prolinamide]"
11,0.2875 µM,"N#CC1CN(S(=O)(=O)N2CCC(F)=C(C(=O)N3CCC[C@@H]3C(=O)NCc3ccc(C(F)(F)F)cc3)C2)C1 [Example 168, 1-((1-((3-cyano-1-azetidinyl)sulfonyl)-4-fluoro-l,2,5,6-tetrahydro-3-pyridinyl)carbonyl)-N-(4-(trifluoromethyl)benzyl)-D-prolinamide]"
12,0.2892 µM,"N#CC1CN(S(=O)(=O)N2CCC[C@H](C(=O)N3CCC[C@@H]3C(=O)N[C@H](CO)c3ccc(Cl)cc3)C2)C1 [Example 169, N-((1S)-1-(4-chlorophenyl)-2-hydroxyethyl)-1-(((3S)-1-((3-cyano-1-azetidinyl)sulfonyl)-3-piperidinyl)carbonyl)-D-prolinamide]"
13,0.2959 µM,"N#CC1CN(S(=O)(=O)N2C[C@H]3C[C@@H]2[C@H](C(=O)N2CCC[C@@H]2C(=O)NCc2ccc(C(F)(F)F)cc2)C3)C1 [Example 172, 1-(((1R,4R,6R)-2-((3-cyano-1-azetidinyl)sulfonyl)-2-azabicyclo[2.2.1]hept-6-yl)carbonyl)-N-(4-(trifluoromethyl)benzyl)-D-prolinamide]"
14,0.3052 µM,"N#CC1CN(S(=O)(=O)N2CCN[C@H](C(=O)N3CCC[C@@H]3C(=O)NCc3ccc(Cl)c(F)c3)C2)C1 [Example 174, N-(4-chloro-3-fluorobenzyl)-1-(((2S)-4-((3-cyano-1-azetidinyl)sulfonyl)-2-piperazinyl)carbonyl)-D-prolinamide]"

# Second part, the molecule before the results:
row,Structure (SMILES),AC1.4
1,"CC[C@@H](NC(=O)[C@H]1CCCN1C(=O)c1cccc(S(=O)(=O)N(C)C)c1)c1ccc(C(F)(F)F)cc1F [Example 146, 1-(3-(dimethylsulfamoyl)benzoyl)-N-((1R)-1-(2-fluoro-4-(trifluoromethyl)phenyl)propyl)-D-prolinamide]",0.2474 µM
2,"CNc1ccc(S(C)(=O)=O)cc1C(=O)N1[C@@H](C(=O)N[C@@H](c2ccc(C(F)(F)F)cc2F)C2CC2)C[C@H]2C[C@H]21 [Example 148, (1R,3R,5R)-N-((R)-cyclopropyl(2-fluoro-4-(trifluoromethyl)phenyl)methyl)-2-(2-(methylamino)-5-(methylsulfonyl)benzoyl)-2-azabicyclo[3.1.0]hexane-3-carboxamide]",0.2569 µM
3,"CS(=O)(=O)c1ccc(NCCO)c(C(=O)N2CCC[C@@H]2C(=O)N[C@@H](c2ccc(C(F)(F)F)cc2F)C2CC2)c1 [Example 154, N-((R)-cyclopropyl(2-fluoro-4-(trifluoromethyl)phenyl)methyl)-1-(2-((2-hydroxyethyl)amino)-5-(methylsulfonyl)benzoyl)-D-prolinamide]",0.2715 µM
4,"N#CC1CN(S(=O)(=O)c2cccc(C(=O)N3CCC[C@@H]3C(=O)NCc3ccc(CF)cc3)c2)C1 [Example 157, 1-((3-((3-cyano-1-azetidinyl)sulfonyl)phenyl)carbonyl)-N-(4-(fluoromethyl)benzyl)-D-prolinamide]",0.2727 µM
5,"N#CC1CN(S(=O)(=O)c2cccc(C(=O)N3CCC[C@@H]3C(=O)N[C@H](CO)c3cccc(C(F)(F)F)c3)c2)C1 [Example 158, 1-(3-((3-cyano-1-azetidinyl)sulfonyl)benzoyl)-N-((1S)-2-hydroxy-1-(3-(trifluoromethyl)phenyl)ethyl)-D-prolinamide]",0.273 µM
6,"CS(=O)(=O)c1ccnc(C(=O)N2CCCC[C@@H]2C(=O)N[C@@H](c2cc(F)c(Cl)cc2F)C2CC2)c1 [Example 159, (2R)-N-((R)-(4-chloro-2,5-difluorophenyl)(cyclopropyl)methyl)-1-((4-(methylsulfonyl)-2-pyridinyl)carbonyl)-2-piperidinecarboxamide]",0.2735 µM
7,"CCS(=O)(=O)c1cncc(C(=O)N2[C@@H](C(=O)N[C@@H](c3cc(F)c(Cl)cc3F)C3CC3)C[C@H]3C[C@H]32)c1 [Example 160, (1R,3R,5R)-N-((R)-(4-chloro-2,5-difluorophenyl)(cyclopropyl)methyl)-2-((5-(ethylsulfonyl)-3-pyridinyl)carbonyl)-2-azabicyclo[3.1.0]hexane-3-carboxamide]",0.274 µM
8,"CS(=O)(=O)c1cccc(C(=O)N2[C@@H](C(=O)N[C@@H](c3ccc(C(F)(F)F)cc3F)C3CCC3)C[C@H]3C[C@H]32)c1 [Example 161, (1R,3R,5R)-N-((R)-cyclobutyl(2-fluoro-4-(trifluoromethyl)phenyl)methyl)-2-(3-(methylsulfonyl)benzoyl)-2-azabicyclo[3.1.0]hexane-3-carboxamide]",0.2746 µM
9,"CN(Cc1ccc(Cl)cc1)C(=O)C1CCCN1C(=O)c1cccc(S(=O)(=O)N2CC(C#N)C2)c1 (stereo not drawn) [Example 162, N-(4-chlorobenzyl)-1-((3-((3-cyano-1-azetidinyl)sulfonyl)phenyl)carbonyl)-N-methyl-prolinamide]",0.2767 µM
10,"O=C(N[C@@H](c1cc(F)c(Cl)cc1F)C1CC1)[C@H]1C[C@H]2C[C@H]2N1C(=O)c1cncc(S(=O)(=O)C2CC2)c1 [Example 163, (1R,3R,5R)-N-((R)-(4-chloro-2,5-difluorophenyl)(cyclopropyl)methyl)-2-((5-(cyclopropylsulfonyl)-3-pyridinyl)carbonyl)-2-azabicyclo[3.1.0]hexane-3-carboxamide]",0.2773 µM
11,"CC[C@H](NC(=O)[C@H]1CCCN1C(=O)c1cccc(S(=O)(=O)N2CC(C#N)C2)c1)c1cc(F)cc(F)c1 [Example 165, 1-(3-((3-cyano-1-azetidinyl)sulfonyl)benzoyl)-N-((1S)-1-(3,5-difluorophenyl)propyl)-D-prolinamide]",0.2792 µM
12,"O=C(N[C@@H](c1cc(F)c(Cl)cc1F)C1COC1)[C@H]1C[C@H]2C[C@H]2N1C(=O)c1ccnc(C(F)(F)F)c1 [Example 171, (1R,3R,5R)-N-((R)-(4-chloro-2,5-difluorophenyl)(3-oxetanyl)methyl)-2-((2-(trifluoromethyl)-4-pyridinyl)carbonyl)-2-azabicyclo[3.1.0]hexane-3-carboxamide]",0.2934 µM
13,"CS(=O)(=O)c1cccc(C(=O)N2C[C@@H](F)C[C@@H]2C(=O)N[C@@H](c2cc(F)c(C(F)(F)F)cc2F)C2CC2)c1 [Example 173, (4S)-N-((R)-cyclopropyl(2,5-difluoro-4-(trifluoromethyl)phenyl)methyl)-4-fluoro-1-(3-(methylsulfonyl)benzoyl)-D-prolinamide]",0.3001 µM
